Experimental findings from patent US7977364B2, “Indazoles, benzisoxazoles and benzisothiazoles and their use as estrogenic agents” (Laboratoire Thermamex, priority 2004, dated 2011) are described below.

The test system of data set [1] is Prepubescent female rats. As to the kind of experiment: Estrogenic / uterotrophic activity in vivo (uterus wet weight). On the set-up: species or system rat. The conditions noted are these: for change in vivo at 3 mg: orally 3 mg/rat/day for 3 days. Summed up: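 Prepubescent female rats dosed orally for 3 days at 3 mg/rat/day, or at 0.3, 1, 3 or 10 mg/rat/day. Uteri removed the following day and wet-weighed; values given as % stimulation of uterine weight over vehicle.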

In data set [2] the target is purified full-length recombinant human ERβ (Homo sapiens, UniProt Q92731). Kind of data set: Estrogen receptor β competitive radiometric binding assay ([3H]-E2).
Chain of purified full-length recombinant human ERβ (Q92731 whole entry): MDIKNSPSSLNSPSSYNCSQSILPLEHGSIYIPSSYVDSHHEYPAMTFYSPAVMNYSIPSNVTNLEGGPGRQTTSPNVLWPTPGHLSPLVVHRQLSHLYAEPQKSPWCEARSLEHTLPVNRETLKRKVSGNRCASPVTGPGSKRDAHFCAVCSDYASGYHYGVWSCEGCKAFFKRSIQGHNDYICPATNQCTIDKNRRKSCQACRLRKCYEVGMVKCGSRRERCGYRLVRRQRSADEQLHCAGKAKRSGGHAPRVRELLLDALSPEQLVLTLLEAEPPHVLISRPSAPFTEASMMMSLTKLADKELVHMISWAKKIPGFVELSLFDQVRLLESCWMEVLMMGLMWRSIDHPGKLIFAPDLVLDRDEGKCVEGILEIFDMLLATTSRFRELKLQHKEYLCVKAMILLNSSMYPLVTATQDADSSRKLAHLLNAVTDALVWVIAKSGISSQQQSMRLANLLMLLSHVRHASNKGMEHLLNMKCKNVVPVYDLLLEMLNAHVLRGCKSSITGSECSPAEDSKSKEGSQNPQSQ
Experimental: Relative binding affinities (RBA) were determined by competitive radiometric binding assays, using purified full-length recombinant human ERα and ERβ (PanVera, Madison, Wis.). […] After shaking for a few seconds and centrifugation at 1500 g and 4° C. for 10 minutes, 150 μl/well of Optiphase ‘Super Mix’ scintillation liquid was mixed with 50 μl of supernatant of each sample and the radioactivity was measured in a MicroBeta counter (Wallac, Turku, Finland). Data were evaluated by a sigmoidal dose-response curve (Prism, GraphPad Software Inc.) to estimate the concentration of competitor at half-maximal specific binding (IC50). […] The selectivity for ERα and ERβ was obtained from the ratio R of the IC50 for ERα to the IC50 for ERβ for each test compound.
In data set [3] the test system is rats. As to the kind of experiment: Forced swimming test (antidepressant activity, immobility duration). It is filed as in vivo, rat. The text has this:
Antidepressant effect of estradiol was recently reported in studies using ER β KO mice model. In addition, ER β localization in dorsal raphe nucleus area in rat has been described. The gold standard test for antidepressant potency of compound consist in the forced swimming test, in this experiment antidepressants could be distinguished from psychostimulants which decreased immobility at doses which increased general activity. In order to investigate the putative antidepressant potency of the compounds reported here, the forced swimming test was performed according to the following design. The animals were housed six per cage under standard colony conditions, with a 12 h light/dark cycle and ad libitum food and water. They were allowed to acclimatize to the colony for at least 7 days prior to any experimentation. For subcutaneous administration, the compound of Example 23 was dissolved in olive oil and diluted to the desired concentration on the day of administration. For positive control, intraperitoneal (i.p.) injection of desipramine was done. Desipramine was dissolved in double-distilled water (10 mg/kg). The experiments were conducted 30 min after the positive control drug treatment (only for desipramine treatment). Other compounds, ie: estradiol and the compound of Example 23 were daily injected subcutaneously in rats, during a 7 days period. Acquisition were performed on day 8 (24 h after the last administration of items) and day 9 (48 h after estradiol or compound 23 administration), respectively. Data acquired 24 hours after the last administration consisted in the “naïve animal group”, these animals had never been previously tested in the device. Data acquired 48 hours after a last administration of compounds consisted in “trained animal group”.
On the 8th, the forced swim test was performed. This study was carried out in rats according to the methods described by Porsolt (Eur. J. Pharm., 1978). Briefly, rats were placed individually in glass cylinders (height: 40 cm, diameter: 18 cm) containing 25 cm of water at 25° C. Ten minutes later, rats were removed and dried before being returned to their home cages. The animals were replaced in the cylinders 24 h later, and the procedure was repeated, and a 10-min observation period was recorded.

Read-outs that look alike come from different tables or passages of the source.

As for `Oc1ccc2c(C3CCCC3)n[nH]c2c1` [Ex 23, 3-cyclopentyl-1H-indazol-6-ol], the change in vivo at 3 mg in data set [1] (Rattus norvegicus, po, 72 h, Table 4, read-out: % stimulation vs vehicle (uterus weight)) worked out at 12%. For the same molecule, the change in vivo at 0.3 mg in data set [1] (Rattus norvegicus, po, 72 h, Table 5, orally 0.3 mg/rat/day for 3 days, read-out: % stimulation vs vehicle (uterus weight)) was -13%. Moreover, the change in vivo at 1 mg in data set [1] (Rattus norvegicus, po, 72 h, Table 5, orally 1 mg/rat/day for 3 days, read-out: % stimulation vs vehicle (uterus weight)) is -5%. For the same molecule, the change in vivo at 3 mg in data set [1] (Rattus norvegicus, po, 72 h, Table 5, read-out: % stimulation vs vehicle (uterus weight)) was -4%. Moreover, in data set [1] (Rattus norvegicus, po, 72 h, Table 5, orally 10 mg/rat/day for 3 days, read-out: % stimulation vs vehicle (uterus weight)), the change in vivo at 10 mg was 20%. The “in vivo estrogenic activity after oral administration” value in data set [1] (in words) is recorded as “weak in vivo estrogenic activity”. In addition, the “uterotrophicity after oral administration” value in data set [1] (up to a 3 mg/animal/day dosage, in words) was “lack of uterotrophicity”. Also, in data set [2], the IC50 (as a rule, the midpoint of a concentration-inhibition curve) worked out at 41.8 ± 7.1 nM. In data set [2] (in words), the “ligand to estrogen receptor beta” value is “potent ligand” and the “selectivity for the human recombinant estrogen receptor β” value is given as “marked selectivity”. Also, in data set [2] (ratio of IC50s of E2 and competitor, E2 set at 100%), the “RBA (%) Mean ± S.E.M, ER β” value amounted to 10.4 ± 4.0%. For the same molecule, the “R (IC50s) αβ” value in data set [2] (ratio of the IC50 for ERα to the IC50 for ERβ) is 31.9. For the same molecule, the “immobility duration, Naïve animals” value in data set [3] (2.8 mg/rat/day s.c. 7 days, 24 h after last administration, 10 minutes test) came out at 45.2 ± 15.6 s. Also, in data set [3] (2.8 mg/rat/day s.c. 7 days, 48 h after last administration, 10 minutes test), the “immobility duration, Trained animals” value worked out at 160.7 ± 44.1 s. Besides, the “antidepressor activity, animals first-in-the-test” value in data set [3] (24 h after administration, in words) is “exhibited a antidepressor activity”. In addition, the “antidepressor potency, trained animal group” value in data set [3] (48 h after administration, in words) is given as “disappeared”.
